Measurements reported in patent publication US5447862A, “Pectin lyase genes of aspergillus niger” (Ciba-Geigy Corporation, priority 1987, dated 1995).

Test system: Aspergillus niger pectin lyase B (PLB), purified from pelB transformant B13, SEQ ID NO: 6
Conditions: EDTA 3 mM final concentration in the reaction mixture; enzyme reactivated by excess of Ca2+ ions
Method: Both highly esterified pectin (d.e. 94%) as well as pectins with lower degree of esterification like Brown Ribbon apple pectin (d.e. 72.8%; Obipektin AG Bischoffzell) can be used as substrate.
These values are determined according to the procedure of van Houdenhoven (ref. 18) using a Mc Ilvaine buffer of pH 8.0 (μ=0.5).

O=C([O-])CN(CCN(CC(=O)O)CC(=O)O)CC(=O)[O-].[Na+].[Na+] [EDTA, ethylenediaminetetraacetic acid disodium salt]
inhibition of the pectin lyase reaction by EDTA: inhibited
